Test results from patent US9796777B2, “Methods of treating malignant tumors” (Canimguide Therapeutics AB, priority 2007, dated 2017).
Several values for one entry are separate records, joined by “and”; a condition that tells them apart may be missing. Equal entries are not always repeated.

Assays:
[1] = tested on: cell surface receptors of immune cells (ACS); test: Adsorption of enzyme fragmented dHSA on affinity column with biotinylated cell surface proteins (ACS), MALDI-TOF ms; type: binding, human; conditions: for Per cent adsobed: Table 6 A, molecular weight 700-3600 Da
Method: Based on the observation that immunoregulatory peptide sequences are present in serum albumin, there is the possibility that other sequences than the epitope of mAb A have immunoregulatory function. Therefore an artificial cell surface (ACS) was prepared as described in materials and methods. […]
To remove unfragmented albumin and enzyme, the sample was ultra filtered through an Amicon Ultra 4 (mw cut-off of 5000) or a Centriplus (mw cut-off 10000) centrifugal filter (Millipore AB, Solna, Sweden). The filtrate, containing fragmented dHSA without enzymes, was collected and diluted with PBS with Ca and Mg (GIBCO).
Buffy coats generated from 450 ml blood each was collected from 4 healthy donors. Erythrocytes were removed by sedimentation on 2% dextran T500 solution (Amersham Pharmacia Biotech AB, Uppsala Sweden) in 0.9% NaCl. Mononuclear cells (PBMC) were then isolated by Ficoll-Paque Plus (GE Healthcare Bioscience AB Sweden) density gradient centrifugation. The PBMC were then suspended in phosphate buffered saline (PBS) containing Ca and Mg (GIBCO) at a concentration of 10×10^6/ml. EZ Link Sulfo-NHS-biotin (Pierce USA) was added at a final concentration of 0.2 mg/ml and the mixture incubated on a shaker at room temperature for 10 min. Excess biotin was then removed by washing the PBMC in PBS. Biotinylated PBMC were then lysed by adding 1.0 ml ice-cold lysing buffer (50 mM Tris-HCL, pH 7.5, with 0.15 M NaCl, 5 mM MgCl2 containing 100 mM Octyl glucoside and 1 mM Phenylmethylsulfonyl fluoride) per 2×10^7 pelleted cells with gentle shaking, then incubated for 30 min. on ice. Debris was removed by centrifugation at 5000×g at 4° C. for 10 min and the supernatants was collected and pooled from all four donors. The lysate was then stored at −70° C. in polypropylene plastic tubes.
This amount of lysate corresponds to 36×10^7 mononuclear cells. It was added to a 1 ml Hitrap Streptavidin HP affinity column (Amersham Biosciences). To block possible remaining free biotin, 5 ml of 0.1 M glycine (Sigma) was added to the column. Unsaturated streptavidin on the column was then reacted with 150 ug biotin (Sigma) in binding buffer. The column was carefully washed with PBS and stored in PBS with 0.1% NaN3 at 4° C. until use.
27 ml biotinylated cell lysate in binding buffer (corresponding to 54×10^7 mononuclear cells) was added to 1.5 ml washed Streptavidin Sepharose HP (Amersham Biosciences). To block possible remaining free biotin, 25 ml of 0.1 M glycine (Sigma) was added to the Streptavidin Sepharose. Unsaturated streptavidin was then reacted with 225 μg biotin (Sigma) in binding buffer. The Streptavidin Sepharose was carefully washed in PBS. One ml of the biotinylated cell lysate coupled Streptavidin Sepharose was then packed in an empty column (Tricorn Empty High Performance Column, Amersham Bioscience) and washed with phosphate buffered saline (PBS) containing Ca and Mg (GIBCO).
The flow-through was collected with consideration taken to void volume and dilution of adsorbed sample by collecting in small portions of 0.2 ml. Thirty ul of each sample, including a control sample that has not been adsorbed, were dried in a Speed-Vac centrifuge.
Dried samples were reconstituted in 10 ul of 0.1% TFA. Zip Tip pipette tips (Millipore, USA) containing C18 reversed-phase media were used for desalting reconstituted samples. […] For the analysis of samples in the mass range 1500-9000 Da, one μl of each Zip Tip eluted sample was mixed with 1 μl of sinapinic acid ([…]). […] Mass identity search of resulting spectra was performed in the SwissProt or NCBI databases using MS-Fit.

[2] = tested on: PBMC; test: LPS-induced IL-6 production by PBMC, effect of peptides; type: cell-based, human; conditions: PBMCs from one healthy control; lowest peptide concentration
Method: 100 μl of culture medium consisting of RPMI1640 supplemented with 200 IU/ml penicillin, 200 μg/ml streptomycin, 4 mM L-glutamine (Sigma Chemical, Mo., US) and 20% fresh heat-inactivated autologous serum were added to un-coated or -pre-coated microtiter plates followed by 100 μl of PBMC suspension (5×10^4 lymphocytes) in RPMI/2% HSA with peptides at the indicated concentrations. Lipoplysaccharide (LPS, Sigma Chemical Co, MO, US) was added at a final concentration of 0.05 ng/ml. […] All assay conditions were set up in triplicate wells. Supernatants (SNs) were harvested after 24 hrs and residual cells were removed by centrifugation in a refrigerated centrifuge (Beckman) at 2600×g for 5 minutes. SNs were frozen and stored at −70° C. IL-6 in cell culture SNs was measured by ELISA using the DuoSet® ELISA development kit for human IL-6 (R&D Systems Europe, Ltd., Abingdon, UK) following the manufacturer's recommended procedures. The lower limit of detection was 3.1 pg/ml. Samples were analysed as mean of triplicate wells.

[3] = tested on: PBMCs; test: PHA-induced proliferation of PBMC in the presence of albumin peptides and/or dHSA; type: cell-based, human
Source text: Venous blood was drawn from healthy volunteers or from cancer patients in glass vacuum tubes with acid dextrose citrate solution A as anti-coagulant (Vacutainer, Becton Dickinson, Franklin Lakes, N.J.). Erythrocytes were removed by sedimentation on 2% dextran T500 solution (Amersham Pharmacia Biotech AB, Uppsala, Sweden) in 0.9% NaCl (this step was omitted for cultures with PHA-stimulation-see below). […] For cell cultures with PHA-stimulation, PBMC were washed in Hank's Balanced Salt Solution (HBSS) with 10% autologous plasma instead of RPMI/2% HSA. […] The cell suspension was stained with Turk's solution and the number of lymphocytes and monocytes in the PBMC preparation were counted in a hemocytometer. PBMCs were suspended in RPMI/2% HSA and the cell concentration adjusted to 5×10^5 lymphocytes/ml.
100 μl of the cell suspension were seeded into round-bottomed microtiter plates (Corning, N.Y., USA) followed by 100 μl of culture medium consisting of RPMI 1640 (Flow Laboratories, Irvine, Scotland) supplemented with 200 IU/ml Penicillin, 200 μg/ml Streptomycin (Flow laboratories) and 20% heat inactivated autologous serum. Phytohemagglutinin (PHA-P, Sigma Chemical Co, St. Louis, Mo.) at a final concentration of 5 or 10 μg/ml was then added.
All culture conditions were set up in triplicate wells. […] Mean values of disintegrations per minute (dpm) of triplicates were used for the calculations.

[4] = Table 5 A, peptides generated by trypsin degradation of dHSA
[5] = Table 6 B, ASP-DHSA, molecular weight 3200-9000 Da
[6] = Table 5 B, trypsin peptides selected for synthesis
[7] = PHA 5 μg/ml, peptides 10 μg/ml, 5 healthy controls and 4 patients
[8] = patient P46, lowest peptide concentration
[9] = peptides 10 μg/ml, lower dHSA concentrations
[10] = peptides 10 μg/ml, two highest dHSA concentrations

AAFTECCQAADK [(K)AAFTECCQAADK (A), tryptic peptide of dHSA]
Per cent adsorbed [1, 4]: 0.29 Per cent

LKECCEKPLLEK [299-310, tryptic peptide of dHSA]
Per cent adsorbed [1, 4]: 0.36 Per cent

CCAAADPHECYAK [384-396, tryptic peptide of dHSA]
Per cent adsorbed [1, 4]: 0.32 Per cent

LAKYICE NQDSISSKLK ECCEKPLLEK SHCIAEVEN (LAKYICENQDSISSKLKECCEKPLLEKSHCIAEVEN) [ASP-N fragment of dHSA]
Per cent adsorbed [1, 5]: 1.00 Per cent

ETYGEMADCCAK [106-117, tryptic peptide of dHSA]
Per cent adsorbed [1, 4]: -0.08 Per cent

RPCFSALEVDETYVPK [tryptic peptide of dHSA]
Per cent adsorbed [1, 4]: 0.42 Per cent

KYLYEIAR [(K)KYLYEIAR (R), tryptic peptide of dHSA]
Per cent adsorbed [1, 4]: 0.71 Per cent
Per cent adsorbed [1, 6]: 0.71 Per cent

AVMDDFAAFVEK [570-581, tryptic peptide of dHSA]
Per cent adsorbed [1, 4]: 0.23 Per cent

DSISSKLKECCEKPLLEKSHCIAEVEN [ASP-N fragment of dHSA]
Per cent adsobed ([1]; ASP-DHSA): 0.65 Per cent

SISSKLKECCEKPLLEK SHClAEVEN DEMPA (SISSKLKECCEKPLLEKSHCIAEVENDEMPA; HOMO SAPIENS) [ASP-N fragment of dHSA]
binding to ACS ([1]; asparaginase degraded dHSA): contradictory results

YKAAFTECCQAADK [tryptic peptide of dHSA]
Per cent adsorbed [1, 4]: -0.37 Per cent

YLSVVLNQLCVLHEK TPVS DRVTKC CTESLVNRRP CFSALEV
Per cent adsorbed [1, 5]: 0.37 Per cent

FKDLGEENFK [(R)FKDLGEENFK (A), tryptic peptide of dHSA]
Per cent adsorbed [1, 4]: 0.08 Per cent

RVTKC CTESLVNRRPCFSALEVDETYVPKEFNAETFTFHA (RVTKCCTESLVNRRPCFSALEVDETYVPKEFNAETFTFHA; HOMO SAPIENS) [ASP-N fragment of dHSA]
Per cent adsorbed [1, 5]: 1.00 Per cent

QNCELFEQLGEYK [414-426, tryptic peptide of dHSA]
Per cent adsorbed [1, 4]: 0.20 Per cent
Per cent adsorbed [1, 6]: 0.20 Per cent

DKLCTVATLRETYGEM [ASP-N fragment of dHSA]
Per cent adsobed ([1]; ASP-DHSA): 0.65 Per cent

QEPERNECFLQHK [(K)QEPERNECFLQHK (D), tryptic peptide of dHSA]
Per cent adsorbed [1, 4]: 0.26 Per cent and 0.18 Per cent

DHVKLVNEVTEFAKTCVA [ASP-N fragment of dHSA]
Per cent adsobed ([1]; ASP-DHSA): 1.00 Per cent

LGE ENFKALVLIAFAQYLQQCPFEDHVKLVNEVTEFAKTCVA (LGEENFKALVLIAFAQYLQQCPFEDHVKLVNEVTEFAKTCVA; HOMO SAPIENS) [ASP-N fragment of dHSA]
Per cent adsorbed [1, 5]: 1.00 Per cent

NECFLQHK [(R)NECFLQHK (D), tryptic peptide of dHSA]
Per cent adsorbed [1, 4]: 0.22 Per cent

KLVNEVTEFAKT [peptide 2604]
effect on LPS induced IL-6 production [2]: stimulatory

DDKETCFAEEGKKLVAASQAALGL [ASP-N fragment of dHSA]
Per cent adsobed ([1]; ASP-DHSA): 1.00 Per cent

ICTLSEKERQIKKQ TALVELVKHK PKATKEQLKA VM (ICTLSEKERQIKKQTALVELVKHKPKATKEQLKAVM) [ASP-N fragment of dHSA]
Per cent adsorbed [1, 5]: 1.00 Per cent

NEETFLKKYLYE [peptide 2605]
effect on PHA induced proliferation of PBMCs ([3]; PBMCs from K92, three peptide concentrations): biphasic response pattern
effect on dHSA modulated PHA stimulated proliferation ([3]; PBMCs from two healthy controls, two PHA concentrations): inhibited the stimulatory activity of dHSA
effect on PHA induced proliferation of PBMCs [3, 7]: inhibitory or stimulatory effects in one control each and one patient each
effect on PHA induced proliferation of PBMCs [3, 8]: clear stimulatory activity
effect on dHSA enhanced PHA induced proliferation [3, 9]: stimulated the proliferative rate
effect on dHSA enhanced PHA induced proliferation [3, 10]: significantly inhibited the stimulatory activity

ELFEQLGEYKF [peptide 2608]
effect on PHA induced proliferation of PBMCs [3, 7]: stimulatory effect in ¼ controls whereas ¾ patients were stimulated
effect on PHA induced proliferation of PBMCs [3, 8]: clear stimulatory activity
effect on dHSA enhanced PHA induced proliferation [3, 9]: stimulated the proliferative rate
effect on dHSA enhanced PHA induced proliferation [3, 10]: significantly inhibited the stimulatory activity
effect on LPS induced IL-6 production [2]: inhibitory

YICENQDSISSK [287-298, tryptic peptide of dHSA]
Per cent adsorbed [1, 4]: 0.03 Per cent

DETYVPKEFNAETFTHA [ASP-N fragment of dHSA]
Per cent adsobed ([1]; ASP-DHSA): 0.86 Per cent

KLCT VATLRETYGE MA DCCAKQEP ERNECFLQHK (KLCTVATLRETYGEMADCCAKQEPERNECFLEHK; HOMO SAPIENS) [ASP-N fragment of dHSA]
Per cent adsorbed [1, 5]: 1.00 Per cent

SLHTLFGDK [089-097, tryptic peptide of dHSA]
Per cent adsorbed [1, 4]: 0.36 Per cent

YSVVLL LRLAKTYETT LEKCCAAADP HECYAKVF (YSVVLLLRLAKTYETTLEKCCAAADPHECYAKVF; HOMO SAPIENS) [ASP-N fragment of dHSA]
Per cent adsorbed [1, 5]: 1.00 Per cent

VPQVSTPTLVEVSR [tryptic peptide of dHSA]
Per cent adsorbed [1, 4]: 0.59 Per cent

DRVTKCCTESLVNRRPCFSALEV [ASP-N fragment of dHSA]
Per cent adsobed ([1]; ASP-DHSA): 0.87 Per cent

VF LGMFLYEYARRHPDYSVVLLLRLAKTYETTLEKCCAAA (VFLGMFLYEYARRHPDYSVVLLLRLAKTYETTLEKCCAAA; HOMO SAPIENS) [ASP-N fragment of dHSA]
Per cent adsorbed [1, 5]: 1.00 Per cent

VHTECCHGDLLECADDR [tryptic peptide of dHSA]
Per cent adsorbed [1, 4]: 0.13 Per cent
